# Source: patent publication US6428812B1, “Process for producing granules containing angiotensin-converting enzyme inhibiting peptides” (Calpis Co., Ltd., priority 1999, dated 2002)
# Target: angiotensin-converting enzyme (ACE) (Homo sapiens, UniProt P12821)
# Experiment: ACE inhibitory activity
# Type: biochemical
# Settings: ratio IPP versus VPP
# Chain of angiotensin-converting enzyme (ACE) (P12821 30-1306, species assumed): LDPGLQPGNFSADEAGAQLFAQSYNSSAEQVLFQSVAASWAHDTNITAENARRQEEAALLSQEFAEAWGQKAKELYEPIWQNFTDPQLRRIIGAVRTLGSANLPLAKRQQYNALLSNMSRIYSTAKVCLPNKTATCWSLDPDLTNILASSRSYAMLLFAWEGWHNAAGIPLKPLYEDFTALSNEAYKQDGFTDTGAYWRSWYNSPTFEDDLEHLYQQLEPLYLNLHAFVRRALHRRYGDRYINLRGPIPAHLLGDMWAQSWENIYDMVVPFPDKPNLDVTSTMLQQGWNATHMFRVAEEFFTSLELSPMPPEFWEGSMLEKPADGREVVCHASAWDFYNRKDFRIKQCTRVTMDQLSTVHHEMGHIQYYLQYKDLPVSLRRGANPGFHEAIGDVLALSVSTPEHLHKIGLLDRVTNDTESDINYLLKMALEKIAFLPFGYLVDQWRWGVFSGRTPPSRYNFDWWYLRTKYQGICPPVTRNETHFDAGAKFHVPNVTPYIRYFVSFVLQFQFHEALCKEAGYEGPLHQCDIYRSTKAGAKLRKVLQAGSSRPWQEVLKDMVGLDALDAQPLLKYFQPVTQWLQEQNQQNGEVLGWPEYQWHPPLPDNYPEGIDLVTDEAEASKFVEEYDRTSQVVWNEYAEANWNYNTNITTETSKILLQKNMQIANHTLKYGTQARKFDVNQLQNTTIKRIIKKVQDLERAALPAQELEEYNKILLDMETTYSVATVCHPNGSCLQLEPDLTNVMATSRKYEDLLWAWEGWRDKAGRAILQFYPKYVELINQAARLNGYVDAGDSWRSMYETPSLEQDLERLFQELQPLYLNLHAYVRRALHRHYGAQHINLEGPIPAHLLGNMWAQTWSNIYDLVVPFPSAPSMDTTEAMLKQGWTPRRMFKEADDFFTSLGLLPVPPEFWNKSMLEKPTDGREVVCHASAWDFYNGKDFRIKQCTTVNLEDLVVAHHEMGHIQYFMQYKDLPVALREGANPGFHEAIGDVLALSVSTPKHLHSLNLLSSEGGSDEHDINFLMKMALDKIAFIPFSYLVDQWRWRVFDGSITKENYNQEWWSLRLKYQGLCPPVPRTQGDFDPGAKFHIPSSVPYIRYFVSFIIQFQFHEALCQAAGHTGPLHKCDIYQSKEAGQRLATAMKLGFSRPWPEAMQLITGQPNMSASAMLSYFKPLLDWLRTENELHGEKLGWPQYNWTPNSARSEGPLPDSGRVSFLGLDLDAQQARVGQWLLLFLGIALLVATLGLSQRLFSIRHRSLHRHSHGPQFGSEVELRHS
substance,measurement,value
Ile-Pro-Pro [IPP],ACEI activity of IPP relative to VPP,1.7 times
